Series [1] relates to Liver microsomes. In words: Clearance in human liver microsomes. It is filed as ADME, Microsome. Background: Liver microsomes are a subcellular fraction often used to study metabolism.
The nature of series [2]: Cmax in rat at 10 mg/kg, po. Conditions: in vivo. It is filed as ADME, organism-based. Set-up: dose 10 mg/kg, route oral.
Series [3] in a line: Plasma concentration in rat at 10 mg/kg, po after 4 hrs. It is filed as ADME, organism-based. Set-up: dose 10 mg/kg, route oral.
Series [4] concerns Rattus norvegicus. In words: AUC (0 to 4 hrs) in rat at 10 mg/kg, po. It is filed as ADME, organism-based, Plasma. More on the design: time < 4 hr, dose 10 mg/kg, route oral. Conditions: in vivo.

For `COC(=O)NC(=O)c1ccc(C)c(Nc2ncnn3cc(C(=O)c4ccccc4)c(C)c23)c1`, the CL in series [1] amounted to 0.16 nmol/min/mg.

Turning to `Cc1ccc(C(=O)NC2CC2)cc1Nc1ncnn2cc(C(=O)c3ccccc3)c(C)c12`, the CL in series [1] was 0.08 nmol/min/mg. Besides, the Cmax (usually the peak of the concentration-time curve) in series [2] came to 752 ng/mL. In series [3], this compound registered a concentration at 4 h of 550 ng/mL. Further, the area under the curve (AUC) (usually the area under the concentration-time curve, a measure of exposure) in series [4] stood at 2300 ng·h/mL.

The values above are taken from ChEMBL document CHEMBL1806462, “Discovery of pyrrolo[2,1-f][1,2,4]triazine C6-ketones as potent, orally active p38α MAP kinase inhibitors” (Bioorg Med Chem Lett, 2011).
